Experimental data taken from US11464770B2, “Anticancer pharmaceutical composition” (NATIONAL CANCER CENTER, priority 2016, dated 2022).
Where two headings read alike, the source gives them in different places.

Legend:
liver cancer cell lines = experiment: Cell based assay, cell viability (CellTiter-Glo), liver cancer cell lines; settings: Homo sapiens, SK-HEP1; SK-HEP-1 cell line
Outline: (§1)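 Luminescent ATP assay quantified surviving cells after three days of treatment. Compound was applied at final concentrations of 0 to 2 μM, starting 24 h after cells were seeded.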

[1] = test system: cervical carcinoma cell lines; experiment: Cell based assay, cell viability (CellTiter-Glo), cervical carcinoma cell lines; settings: Homo sapiens; HeLa cells
[2] = test system: prostate cancer cell lines (e.g. DU145/TXR); experiment: Cell based assay, cell viability (CellTiter-Glo), prostate cancer cell lines; settings: Homo sapiens, 72 hours treatment, final concentration 0 to 2 μM
Outline: as §1

[3] = test system: RT4: human urinary bladder transitional cell papilloma; experiment: Cell based assay, cytotoxicity in RT4 papilloma cells (selectivity); settings: Homo sapiens, RT-4; RT4 cells
renal cancer cell lines = experiment: Cell based assay, cell viability (CellTiter-Glo), renal cancer cell lines; settings: Homo sapiens; ACHN cells
Outline: as §1

[4] = test system: blood cancer cell lines (e.g. HL-60, Jurkat, Raji, Ramos, Daudi, MOLT-4); experiment: Cell based assay, cell viability (CellTiter-Glo), blood cancer cell lines; settings: Homo sapiens
Outline: as §1

[5] = CWR22 cells, read-out: IC50, prostate cancer cell line CWR22
[6] = DU-145, DU145/TXR cells, read-out: IC50, prostate cancer cell line DU145/TXR
[7] = DU-145, DU145 cells, read-out: IC50, prostate cancer cell line DU145
[8] = LNcap cells, read-out: IC50, prostate cancer cell line LNcap
[9] = PC-3 cells, read-out: IC50, prostate cancer cell line PC-3
[10] = MV4-11, blood cancer cell line MV-4-11, 72 hours, read-out: IC50, MV-4-11
[11] = blood cancer cell line Daudi, 72 hours, read-out: IC50, Daudi
[12] = blood cancer cell line HL-60, 72 hours, read-out: IC50, HL-60
[13] = blood cancer cell line Jurkat, 72 hours, read-out: IC50, Jurkat
[14] = blood cancer cell line MOLT-4, 72 hours, read-out: IC50, MOLT-4
[15] = blood cancer cell line Raji, 72 hours, read-out: IC50, Raji
[16] = blood cancer cell line Ramos (RA 1), 72 hours, read-out: IC50, Ramos (RA 1)
[17] = blood cancer cell line U-937, 72 hours, read-out: IC50, U-937

SMILES	IC50 (liver cancer cell lines)	IC50 [1]	IC50 [2, 5]	IC50 [2, 6]	IC50 [2, 7]	IC50 [2, 8]	IC50 [2, 9]	IC50 (renal cancer cell lines)	IC50 [4, 10]	IC50 [4, 11]	IC50 [4, 12]	IC50 [4, 13]	IC50 [4, 14]	IC50 [4, 15]	IC50 [4, 16]	IC50 [4, 17]	IC50 [3]
CC(=O)c1c([S+]([O-])Cc2ccc([S+]([O-])C(F)(F)F)cc2)[nH]c2c(Br)ccc(Cl)c2c1=O (centres unmarked) [Compound 64, 3-acetyl-8-bromo-5-chloro-2-((4-((trifluoromethyl)sulfinyl)benzyl)sulfinyl)quinolin-4(1H)-one]	870 nM	> 10000 nM	1490 nM	1160 nM	1570 nM	1710 nM	1430 nM	> 2000 nM	1120 nM	> 2000 nM	1500 nM	1070 nM	1460 nM	1090 nM	1850 nM	> 2000 nM	> 10000 nM
CC(=O)c1c([S+]([O-])Cc2ccc(C(F)(F)F)cc2)[nH]c2c(Br)ccc(Cl)c2c1=O (centres unmarked) [Compound 70, 3-acetyl-8-bromo-5-chloro-2-((4-(trifluoromethyl)benzyl)sulfinyl)quinolin-4(1H)-one]	1030 nM	> 10000 nM	1890 nM	1190 nM	1090 nM	> 2000 nM	1250 nM	> 2000 nM	1520 nM	1600 nM	> 2000 nM	1090 nM	1310 nM	1320 nM	1900 nM	> 2000 nM	> 10000 nM
CC(=O)c1c([S+]([O-])Cc2ccc(C(F)(F)F)o2)[nH]c2c(Br)ccc(Cl)c2c1=O (centres unmarked) [Compound 72, 3-acetyl-8-bromo-5-chloro-2-(((5-(trifluoromethyl)furan-2-yl)methyl)sulfinyl)quinolin-4(1H)-one]	730 nM	> 2000 nM	1520 nM	890 nM	710 nM	1910 nM	1280 nM	> 2000 nM	1120 nM	1600 nM	1300 nM	780 nM	1050 nM	940 nM	1370 nM	970 nM	> 10000 nM
CC(=O)c1c([S+]([O-])Cc2ccc(C#N)cc2)[nH]c2c(Br)ccc(Cl)c2c1=O (centres unmarked) [Compound 73, 4-(((3-acetyl-8-bromo-5-chloro-4-oxo-1,4-dihydroquinolin-2-yl)sulfinyl)methyl)benzonitrile]	1420 nM	> 10000 nM	> 2000 nM	1770 nM	> 2000 nM	> 2000 nM	1870 nM	> 2000 nM	1310 nM	> 2000 nM	1600 nM	> 2000 nM	> 2000 nM	> 2000 nM	> 2000 nM	> 2000 nM	> 10000 nM
CC(=O)c1c([S+]([O-])Cc2c(F)cccc2Cl)[nH]c2c(Br)ccc(Cl)c2c1=O (centres unmarked) [Compound 74, 3-acetyl-8-bromo-5-chloro-2-((2-chloro-6-fluorobenzyl)sulfinyl)quinolin-4(1H)-one]	880 nM	> 10000 nM	1720 nM	1460 nM	> 2000 nM	1760 nM	1470 nM	> 2000 nM	1340 nM	> 2000 nM	1980 nM	> 2000 nM	1710 nM	> 2000 nM	> 2000 nM	> 2000 nM	> 10000 nM
CC(=O)c1c([S+]([O-])Cc2cccnc2)[nH]c2c(Br)ccc(Cl)c2c1=O (centres unmarked) [Compound 84, 3-acetyl-8-bromo-5-chloro-2-((pyridin-3-ylmethyl)sulfinyl)quinolin-4(1H)-one]	1070 nM	> 10000 nM	1420 nM	1230 nM	1390 nM	> 2000 nM	> 2000 nM	1380 nM	820 nM	1120 nM	1480 nM	980 nM	970 nM	1500 nM	1000 nM	1480 nM	> 10000 nM
Cc1cc(C[S+]([O-])c2[nH]c3c(Cl)ccc(Cl)c3c(=O)c2C(=O)C(C)C)no1 (centres unmarked) [Compound 86, 5,8-dichloro-3-isobutyryl-2-(((5-methylisoxazol-3-yl)methyl)sulfinyl)quinolin-4(1H)-one]	1000 nM	> 2000 nM	1260 nM	1110 nM	1310 nM	> 2000 nM	1670 nM	1330 nM	710 nM	650 nM	1380 nM	550 nM	1010 nM	820 nM	460 nM	1230 nM	> 10000 nM
COC(=O)c1ccc(C[S+]([O-])c2[nH]c3c(Cl)ccc(Cl)c3c(=O)c2C(C)=O)o1 (centres unmarked) [Compound 89, methyl 5-(((3-acetyl-5,8-dichloro-4-oxo-1,4-dihydroquinolin-2-yl)sulfinyl)methyl)furan-2-carboxylate]	1590 nM	> 10000 nM	> 2000 nM	1960 nM	> 2000 nM	> 2000 nM	> 2000 nM	> 2000 nM	1750 nM	> 2000 nM	> 2000 nM	1380 nM	> 2000 nM	> 2000 nM	1710 nM	> 2000 nM	> 10000 nM

More lines, in order of falling IC50 (liver cancer cell lines), values ahead:

IC50 (liver cancer cell lines)	IC50 [1]	IC50 [2, 5]	IC50 [2, 6]	IC50 [2, 7]	IC50 [2, 8]	IC50 [2, 9]	IC50 (renal cancer cell lines)	IC50 [4, 10]	IC50 [4, 11]	IC50 [4, 12]	IC50 [4, 13]	IC50 [4, 14]	IC50 [4, 15]	IC50 [4, 16]	IC50 [4, 17]	SMILES	IC50 [3]
1510 nM	> 10000 nM	1940 nM	1050 nM	1340 nM	> 2000 nM	> 2000 nM	> 2000 nM	> 2000 nM	1220 nM	> 2000 nM	1310 nM	1250 nM	1750 nM	1170 nM	> 2000 nM	CC(=O)c1c([S+]([O-])Cc2ccc(I)cc2)[nH]c2c(Cl)ccc(Cl)c2c1=O (centres unmarked) [Compound 83, 3-acetyl-5,8-dichloro-2-((4-iodobenzyl)sulfinyl)quinolin-4(1H)-one]	> 10000 nM
1230 nM	> 10000 nM	> 2000 nM	1170 nM	1140 nM	> 2000 nM	1700 nM	> 2000 nM	> 2000 nM	1660 nM	> 2000 nM	1200 nM	1620 nM	1350 nM	> 2000 nM	> 2000 nM	CC(=O)c1c([S+]([O-])Cc2cc(F)cc(S(F)(F)(F)(F)F)c2)[nH]c2c(Br)ccc(Cl)c2c1=O (centres unmarked) [Compound 76, 3-acetyl-8-bromo-5-chloro-2-((3-fluoro-5-(pentafluoro--sulfanyl)benzyl)sulfinyl)quinolin-4(1H)-one]	> 10000 nM
1180 nM	> 10000 nM	> 2000 nM	1230 nM	1740 nM	> 2000 nM	1700 nM	> 2000 nM	> 2000 nM	> 2000 nM	> 2000 nM	1250 nM	1510 nM	1650 nM	> 2000 nM	> 2000 nM	CC(=O)c1c([S+]([O-])Cc2ccc(OC(F)(F)F)cc2)[nH]c2c(Br)ccc(Cl)c2c1=O (centres unmarked) [Compound 71, 3-acetyl-8-bromo-5-chloro-2-((4-(trifluoromethoxy)benzyl)sulfinyl)quinolin-4(1H)-one]	> 10000 nM
1030 nM	> 10000 nM	1880 nM	1030 nM	1020 nM	> 2000 nM	1440 nM	> 2000 nM	> 2000 nM	1260 nM	> 2000 nM	1090 nM	1280 nM	1160 nM	> 2000 nM	> 2000 nM	COc1cc(S(F)(F)(F)(F)F)ccc1C[S+]([O-])c1[nH]c2c(Br)ccc(Cl)c2c(=O)c1C(C)=O (centres unmarked) [Compound 75, 3-acetyl-8-bromo-5-chloro-2-((2-methoxy-4-(pentafluoro--sulfanyl)benzyl)sulfinyl)quinolin-4(1H)-one]	> 10000 nM
940 nM	> 2000 nM	1080 nM	940 nM	840 nM	1980 nM	1700 nM	1190 nM	700 nM	640 nM	980 nM	290 nM	1010 nM	1000 nM	520 nM	1060 nM	Cc1cc(C[S+]([O-])c2[nH]c3c(Br)ccc(Cl)c3c(=O)c2C(=O)C(C)C)no1 (centres unmarked) [Compound 95, 8-bromo-5-chloro-3-isobutyryl-2-(((5-methylisoxazol-3-yl)methyl)sulfinyl)quinolin-4(1H)-one]	> 10000 nM
